Series [1] can be described thus: Solubility in D2O by 1H NMR (Me2SO2 internal standard). The format is physicochemical. The note with it: 21 °C. The protocol: Solubility in water. A suspension of the selected Fe compound (3–5 mg) in a D2O solution (0.7 mL) containing Me2SO2 as internal standard^52 (3.36 ⋅ 10^−3 M) was vigorously stirred at 21 °C for 10 h. The resulting saturated solution was filtered over celite, transferred into an NMR tube and analysed by ^1H NMR spectroscopy (delay time=3 s; number of scans=20). For the most soluble compounds (S≥0.05 M), a saturated solution was prepared in a smaller volume of D2O/Me2SO2 (0.2–0.3 mL), then filtered and diluted with pure D2O. The concentration (solubility) was calculated by the relative integral with respect to Me2SO2 (δ/ppm=3.14 (s, 6H)).

Series [2] concerns untransformed HEK293 cells. Description: Cellular uptake, iron by GF-AAS. The format is cell-based, human. The note with it: 50 μM, 24 h, GF-AAS (μg Fe per 10^6 cells, Figure 4A). The protocol:
In order to correlate the cytotoxic potential to the ability of the newly developed complexes to enter cells, we performed uptake experiments. […] Thus, cells were treated for 24 h with equimolar concentrations (50 μM) of the tested compounds. The cellular iron levels were quantified by means of GF‐AAS analysis, and the results, expressed as μg Fe per 10^6 cells, are shown in Figure 4A. […]
Figure 4 Intracellular detection of iron and carbon monoxide. A) Cellular uptake in PSN‐1 and HEK293 cells; cells were incubated with 50 μM of complexes for 24 h, and the cellular iron content was detected by GFAAS analysis. B) Intracellular CO levels were determined by using a fluorescent probe (BioTracker Carbon Monoxide Probe 1 Live Cell Dye®, Merck, Germany) after 30 min of treatment of PSN‐1 or HEK293 cells with 20 μM [2C]CF3SO3 and [2D]CF3SO3, or 20 μM CORM‐401 as positive control. ** P<0.01, * P<0.05.
Cellular uptake. […] Cell monolayers were washed twice with cold PBS, harvested and counted. […] After cooling, each mineralized sample was analysed for iron using a Varian AA Duo graphite furnace atomic absorption spectrometer (Varian) at the wavelength of 248.3 nm. […]

As to “[Fe2Cp2(CO)2(μ‐CO){μ‐CNEt(2‐naphthyl)}]BF4 [[4G]BF4]”, in series [1], the Solubility result is “not soluble ^[a]”.
As to “[Fe2Cp2(CO)2(μ‐CO){μ‐CNMe(4‐C6H4OMe)}]CF3SO3 [[2D]CF3SO3]”, the “Cellular iron accumulation (uptake)” value in series [2] was “major iron accumulation in untransformed cells with respect to pancreatic cancer cells”.

For the origin of these results see PMC8362065, “Easily Available, Amphiphilic Diiron Cyclopentadienyl Complexes Exhibit in Vitro Anticancer Activity in 2D and 3D Human Cancer Cells through Redox Modulation Triggered by CO Release” (Chemistry (Weinheim an Der Bergstrasse, Germany), 2021).
